Experimental data taken from ChEMBL document CHEMBL1201862, “PubChem BioAssay data set” (2004).
Calls of active or inactive are those of the source.

Legend:
[1] = target: Peroxisome proliferator-activated receptor gamma/Nuclear receptor coactivator 1 (Homo sapiens, UniProt P37231); assay type: functional;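 also: agonist potency as compounds enhance coactivator SRC-1 recruitment to PPARgamma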
[2] = target: Peroxisome proliferator-activated receptor gamma/Nuclear receptor coactivator 3 (Homo sapiens, UniProt P37231); assay type: functional;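 also: agonist potency for raising coactivator recruitment to the receptor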
[3] = target: Peroxisome proliferator-activated receptor gamma/Nuclear receptor coactivator 2 (Homo sapiens, UniProt P37231); assay type: functional;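 also: agonist potency for raising coactivator recruitment to the receptor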
Chain of Peroxisome proliferator-activated receptor gamma/Nuclear receptor coactivator 2 (P37231 whole entry): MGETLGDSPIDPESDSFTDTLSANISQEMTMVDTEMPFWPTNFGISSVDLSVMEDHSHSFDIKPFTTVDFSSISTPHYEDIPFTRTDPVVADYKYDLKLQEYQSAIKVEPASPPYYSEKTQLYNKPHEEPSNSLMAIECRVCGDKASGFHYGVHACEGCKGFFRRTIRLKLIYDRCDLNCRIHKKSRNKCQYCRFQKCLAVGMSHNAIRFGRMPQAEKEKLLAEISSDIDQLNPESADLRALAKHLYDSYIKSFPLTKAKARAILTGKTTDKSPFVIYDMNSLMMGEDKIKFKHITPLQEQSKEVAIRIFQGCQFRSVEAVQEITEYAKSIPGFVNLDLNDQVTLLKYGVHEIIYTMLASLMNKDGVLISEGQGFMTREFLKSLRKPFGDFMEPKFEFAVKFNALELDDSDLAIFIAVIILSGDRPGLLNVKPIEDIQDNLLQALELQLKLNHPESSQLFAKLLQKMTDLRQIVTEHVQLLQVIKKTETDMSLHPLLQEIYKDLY
Chain of Peroxisome proliferator-activated receptor gamma/Nuclear receptor coactivator 2 (Q15596 whole entry, further chain): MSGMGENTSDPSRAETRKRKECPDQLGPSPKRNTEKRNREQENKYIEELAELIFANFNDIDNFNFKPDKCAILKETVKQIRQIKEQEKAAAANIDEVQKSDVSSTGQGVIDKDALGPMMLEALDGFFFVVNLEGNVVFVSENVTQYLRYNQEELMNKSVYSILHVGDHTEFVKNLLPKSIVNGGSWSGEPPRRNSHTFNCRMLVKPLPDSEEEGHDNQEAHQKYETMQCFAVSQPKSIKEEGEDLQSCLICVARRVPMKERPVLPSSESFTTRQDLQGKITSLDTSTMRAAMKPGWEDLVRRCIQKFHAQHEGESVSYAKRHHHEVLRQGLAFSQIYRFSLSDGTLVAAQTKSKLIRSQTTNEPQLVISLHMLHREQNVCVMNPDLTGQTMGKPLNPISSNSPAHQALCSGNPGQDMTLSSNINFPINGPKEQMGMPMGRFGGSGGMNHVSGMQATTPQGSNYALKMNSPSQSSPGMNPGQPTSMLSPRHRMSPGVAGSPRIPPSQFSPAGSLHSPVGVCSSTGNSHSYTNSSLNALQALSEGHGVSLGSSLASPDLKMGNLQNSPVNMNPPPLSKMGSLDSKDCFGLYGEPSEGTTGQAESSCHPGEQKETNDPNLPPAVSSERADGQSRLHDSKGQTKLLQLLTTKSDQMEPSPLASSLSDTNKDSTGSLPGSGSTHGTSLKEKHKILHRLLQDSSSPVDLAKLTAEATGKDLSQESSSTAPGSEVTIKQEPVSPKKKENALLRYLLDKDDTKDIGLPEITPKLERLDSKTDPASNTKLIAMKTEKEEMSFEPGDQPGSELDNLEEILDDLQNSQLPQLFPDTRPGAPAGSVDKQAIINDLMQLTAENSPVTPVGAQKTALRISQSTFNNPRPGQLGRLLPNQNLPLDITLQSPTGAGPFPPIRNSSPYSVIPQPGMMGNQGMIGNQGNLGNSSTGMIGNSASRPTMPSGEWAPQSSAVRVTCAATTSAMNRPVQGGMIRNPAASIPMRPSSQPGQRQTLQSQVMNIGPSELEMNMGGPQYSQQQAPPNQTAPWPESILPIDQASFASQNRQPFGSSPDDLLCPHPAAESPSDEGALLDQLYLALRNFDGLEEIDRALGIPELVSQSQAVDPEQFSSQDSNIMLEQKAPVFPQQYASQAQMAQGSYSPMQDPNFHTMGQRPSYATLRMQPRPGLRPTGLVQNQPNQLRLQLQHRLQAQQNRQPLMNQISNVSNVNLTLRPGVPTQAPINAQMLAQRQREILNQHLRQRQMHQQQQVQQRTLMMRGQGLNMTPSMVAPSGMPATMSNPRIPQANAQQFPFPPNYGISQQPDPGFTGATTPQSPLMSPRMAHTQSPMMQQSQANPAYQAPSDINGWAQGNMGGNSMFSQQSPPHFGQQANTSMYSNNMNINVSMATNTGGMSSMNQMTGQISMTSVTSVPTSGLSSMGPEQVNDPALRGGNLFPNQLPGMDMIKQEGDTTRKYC

[4] = target: Induced myeloid leukemia cell differentiation protein Mcl-1 (Homo sapiens, UniProt Q07820); assay type: functional
Chain of Induced myeloid leukemia cell differentiation protein Mcl-1 (Q07820 whole entry): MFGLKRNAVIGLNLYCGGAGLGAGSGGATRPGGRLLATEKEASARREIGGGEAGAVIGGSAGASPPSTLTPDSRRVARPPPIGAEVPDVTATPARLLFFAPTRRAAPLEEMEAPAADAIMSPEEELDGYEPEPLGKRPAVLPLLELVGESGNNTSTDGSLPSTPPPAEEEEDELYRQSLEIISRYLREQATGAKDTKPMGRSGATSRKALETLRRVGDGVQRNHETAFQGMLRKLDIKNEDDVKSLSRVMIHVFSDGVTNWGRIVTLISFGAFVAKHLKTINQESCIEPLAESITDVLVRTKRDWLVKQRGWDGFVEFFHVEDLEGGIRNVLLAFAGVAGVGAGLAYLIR

[5] = THP-1 cell cytotoxicity, dose response, cytotoxicity control for non-replicating M. tuberculosis project (AID 489025); assay type: functional
[6] = target: T1, Ubiquitin-conjugating enzyme E2 N (Homo sapiens, UniProt P61088); assay type: functional;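 also: Dose-response confirmation in a TR-FRET assay detecting UBC13-driven polyubiquitin chain formation, inhibition measured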
T1 sequence (P61088 whole entry): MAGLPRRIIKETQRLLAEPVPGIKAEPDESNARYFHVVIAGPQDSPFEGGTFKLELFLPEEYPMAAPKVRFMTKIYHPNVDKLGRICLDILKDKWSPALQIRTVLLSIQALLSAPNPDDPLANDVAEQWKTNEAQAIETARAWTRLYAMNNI

cells = assay type: functional
[7] = target: T2, Calpain-2 catalytic subunit (Sus scrofa, UniProt P43367); assay: pig calpain II inhibitor potency, dose response, biochemical, fluorogenic peptide substrate (AID 1420); assay type: functional
T2 sequence (P43367 whole entry): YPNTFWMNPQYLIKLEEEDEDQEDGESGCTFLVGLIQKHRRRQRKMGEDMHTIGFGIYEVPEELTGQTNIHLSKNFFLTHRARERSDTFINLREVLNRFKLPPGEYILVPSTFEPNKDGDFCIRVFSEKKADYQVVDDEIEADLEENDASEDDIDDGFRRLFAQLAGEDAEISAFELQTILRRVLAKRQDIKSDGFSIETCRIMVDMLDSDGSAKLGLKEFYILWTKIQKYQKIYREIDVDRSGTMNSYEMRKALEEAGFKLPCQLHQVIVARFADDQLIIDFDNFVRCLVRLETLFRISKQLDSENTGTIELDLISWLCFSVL

[8] = target: T3, Microphthalmia-associated transcription factor (Homo sapiens, UniProt O75030); assay: TRPM1 promoter luciferase signal decrease, dose response, MITF inhibitor project, cell-based, SK-MEL-5, cherry-picked, set 3 (AID 493073); assay type: functional
T3 sequence (O75030 whole entry): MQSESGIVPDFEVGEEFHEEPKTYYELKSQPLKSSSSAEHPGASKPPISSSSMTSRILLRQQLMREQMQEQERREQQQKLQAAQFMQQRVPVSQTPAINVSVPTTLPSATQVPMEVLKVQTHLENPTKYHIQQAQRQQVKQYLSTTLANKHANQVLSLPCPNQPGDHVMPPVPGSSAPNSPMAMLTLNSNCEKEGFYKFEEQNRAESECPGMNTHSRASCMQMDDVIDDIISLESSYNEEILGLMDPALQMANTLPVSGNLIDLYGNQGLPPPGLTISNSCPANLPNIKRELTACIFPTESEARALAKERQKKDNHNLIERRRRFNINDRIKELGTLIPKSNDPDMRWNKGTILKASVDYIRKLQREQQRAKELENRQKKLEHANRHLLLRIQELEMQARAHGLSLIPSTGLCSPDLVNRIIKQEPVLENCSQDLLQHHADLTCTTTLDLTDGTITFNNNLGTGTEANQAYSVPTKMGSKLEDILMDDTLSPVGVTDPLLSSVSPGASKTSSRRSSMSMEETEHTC

Protein RecA = target: T4, Protein RecA (Mycobacterium tuberculosis, UniProt P9WHJ3); assay: Fluorescence Cell-Free Homogeneous Dose Retest to Identify Inhibitors of RecA-Intein Splicing Activity. [Related pubchem assays (depositor defined):AID2097, AID2223, AID489010, AID492950]; assay type: functional
T4 sequence (P9WHJ3 whole entry): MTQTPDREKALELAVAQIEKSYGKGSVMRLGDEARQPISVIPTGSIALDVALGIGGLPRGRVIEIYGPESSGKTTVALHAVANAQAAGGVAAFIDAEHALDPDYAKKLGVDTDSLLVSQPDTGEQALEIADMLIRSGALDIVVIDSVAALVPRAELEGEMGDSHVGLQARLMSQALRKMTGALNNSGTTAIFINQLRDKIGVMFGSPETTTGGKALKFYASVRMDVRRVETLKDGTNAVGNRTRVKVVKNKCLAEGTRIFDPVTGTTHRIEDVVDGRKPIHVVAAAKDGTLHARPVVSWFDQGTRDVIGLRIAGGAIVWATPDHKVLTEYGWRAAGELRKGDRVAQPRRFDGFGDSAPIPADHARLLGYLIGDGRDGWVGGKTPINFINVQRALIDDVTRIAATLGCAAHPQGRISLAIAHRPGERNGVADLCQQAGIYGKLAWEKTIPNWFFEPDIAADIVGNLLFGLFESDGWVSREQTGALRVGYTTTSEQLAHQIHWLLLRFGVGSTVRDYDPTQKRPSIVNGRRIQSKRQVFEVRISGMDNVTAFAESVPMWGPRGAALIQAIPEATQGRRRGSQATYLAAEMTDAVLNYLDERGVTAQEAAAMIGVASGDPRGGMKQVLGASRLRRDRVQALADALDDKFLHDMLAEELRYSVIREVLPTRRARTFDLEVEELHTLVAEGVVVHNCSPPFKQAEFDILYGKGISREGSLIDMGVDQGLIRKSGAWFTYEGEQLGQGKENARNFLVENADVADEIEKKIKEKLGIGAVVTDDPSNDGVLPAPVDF

[9] = target: T5, Mannose-6-phosphate isomerase (Homo sapiens, UniProt P34949); assay: human PMI inhibitors, high substrate, primary screen, biochemical, fluorescence intensity, high mannose 6-phosphate (AID 1220)
T5 sequence (P34949 whole entry): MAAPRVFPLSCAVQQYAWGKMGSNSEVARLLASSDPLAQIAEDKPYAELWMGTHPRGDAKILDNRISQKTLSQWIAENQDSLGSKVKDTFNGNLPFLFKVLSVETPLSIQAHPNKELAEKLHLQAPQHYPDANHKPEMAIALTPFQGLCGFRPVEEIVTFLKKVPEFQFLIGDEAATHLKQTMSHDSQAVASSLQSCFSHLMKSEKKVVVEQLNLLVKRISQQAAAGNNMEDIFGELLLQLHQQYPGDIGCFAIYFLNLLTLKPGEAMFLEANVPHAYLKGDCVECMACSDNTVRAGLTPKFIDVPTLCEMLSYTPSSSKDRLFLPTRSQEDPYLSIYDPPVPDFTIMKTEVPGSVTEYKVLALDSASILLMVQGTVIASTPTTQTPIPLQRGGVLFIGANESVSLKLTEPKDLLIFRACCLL

Cytochrome P450 3A4 = Cytochrome P450 3A4 (Homo sapiens, UniProt P08684);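 also: CYP3A4 tested as one member of a cytochrome P450 panel screen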
Chain of Cytochrome P450 3A4 (P08684 whole entry): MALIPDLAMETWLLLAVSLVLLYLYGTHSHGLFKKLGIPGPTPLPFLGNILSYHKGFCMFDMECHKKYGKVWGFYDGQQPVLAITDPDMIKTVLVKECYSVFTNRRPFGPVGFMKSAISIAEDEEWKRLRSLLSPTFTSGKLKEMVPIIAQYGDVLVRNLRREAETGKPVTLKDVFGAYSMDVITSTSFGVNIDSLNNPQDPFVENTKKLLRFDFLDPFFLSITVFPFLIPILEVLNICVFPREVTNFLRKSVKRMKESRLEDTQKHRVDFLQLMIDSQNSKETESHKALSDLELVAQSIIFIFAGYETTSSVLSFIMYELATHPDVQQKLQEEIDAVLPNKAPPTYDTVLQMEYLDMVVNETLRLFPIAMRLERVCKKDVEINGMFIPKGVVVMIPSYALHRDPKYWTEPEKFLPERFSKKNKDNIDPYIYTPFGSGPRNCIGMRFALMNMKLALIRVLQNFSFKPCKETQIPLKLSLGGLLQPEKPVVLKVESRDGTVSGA

[10] = microbe, parasite or virus in culture; assay type: functional; details: Mycobacterium tuberculosis
[11] = MC4R antagonists, dose response, counter-screen for LGR2 antagonist project, cell-based, plate reader, cherry pick (AID 743444); assay type: functional;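 also: transfected HEK 293 cells stimulated with alpha-MSH peptide; potency of inhibitors of the alpha-MSH evoked signal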
[12] = A549 cell cytotoxicity, dose response, cytotoxicity control, plate reader, cherry-pick, antagonist series (AID 743412); assay type: functional, cell-based
[13] = LGR2 antagonists, dose response, cell-based, HEK293, CRE-luciferase reporter, cherry pick, set 2 (AID 743343); assay type: functional;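 also: transfected cells were stimulated with diluted bursicon conditioned medium after compound addition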
[14] = test system: Streptococcus sp. 'group A'; assay: growth inhibition of control SK(-) GAS strain, dose response, counter-screen for streptokinase expression inhibitor project, luminescence, kanamycin, BacTiterGlo, confirmation (AID 1900); assay type: functional, organism-based
Streptococcus = assay: Group A Streptococcus viability loss, dose response, counter-screen for streptokinase expression inhibitor project, luminescence, BacTiterGlo (AID 1915); assay type: functional, organism-based;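 also: potency for reduction of bacterial viability or growth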
Streptokinase A = target: T6, Streptokinase A (Streptococcus pyogenes serotype M1, UniProt P10520); assay: S. pyogenes streptokinase expression inhibitors, potency, dose response, plasminogen activation absorbance, OD405 (AID 1914); assay type: functional, Streptococcus pyogenes M1 GAS;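 also: secreted streptokinase activity via plasminogen activation per viability signal from cell pellet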
T6 sequence (P10520 whole entry): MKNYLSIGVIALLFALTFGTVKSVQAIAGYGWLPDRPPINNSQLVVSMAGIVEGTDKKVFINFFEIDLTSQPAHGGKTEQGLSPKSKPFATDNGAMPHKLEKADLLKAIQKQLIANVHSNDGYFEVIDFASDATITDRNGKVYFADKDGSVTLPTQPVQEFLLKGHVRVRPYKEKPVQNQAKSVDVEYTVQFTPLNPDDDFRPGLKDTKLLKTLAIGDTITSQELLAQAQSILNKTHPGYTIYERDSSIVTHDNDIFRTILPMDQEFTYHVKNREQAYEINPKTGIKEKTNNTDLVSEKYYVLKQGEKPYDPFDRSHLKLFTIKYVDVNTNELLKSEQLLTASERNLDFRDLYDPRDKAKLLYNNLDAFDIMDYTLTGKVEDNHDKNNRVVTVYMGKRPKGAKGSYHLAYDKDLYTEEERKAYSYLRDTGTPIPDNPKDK

[15] = cytotoxicity toward NIH3T3 fibroblasts, dose response, counter-screen, cell-based, ATP luminescence, mouse fibroblasts (AID 2010); assay type: functional;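 also: cells exposed to compound for about 90 hours before reading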
[16] = inhibitors of intracellular T. cruzi replication, confirmation, NIH3T3 host cells, beta-gal luminescence (AID 2044); assay type: functional, cell-based;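 also: intracellular parasites grown in NIH/3T3 mouse fibroblasts as host cells; luminescent beta-galactosidase reporter signal from transgenic T. cruzi replicating inside host cells; inhibitors lower the luminescence signal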
[17] = Luminescence Cell-Based Dose Retest to Confirm Inhibitors of Cancer Stem Cells. [Related pubchem assays (depositor defined):AID2717, AID2721]; assay type: functional; details: Homo sapiens
[18] = target: T7, High affinity choline transporter 1 (Homo sapiens, UniProt Q9GZV3); assay: CHT inhibitors, dose response, cell-based, 5-point CRC, membrane potential dye (AID 504840); assay type: functional
T7 sequence (Q9GZV3 whole entry): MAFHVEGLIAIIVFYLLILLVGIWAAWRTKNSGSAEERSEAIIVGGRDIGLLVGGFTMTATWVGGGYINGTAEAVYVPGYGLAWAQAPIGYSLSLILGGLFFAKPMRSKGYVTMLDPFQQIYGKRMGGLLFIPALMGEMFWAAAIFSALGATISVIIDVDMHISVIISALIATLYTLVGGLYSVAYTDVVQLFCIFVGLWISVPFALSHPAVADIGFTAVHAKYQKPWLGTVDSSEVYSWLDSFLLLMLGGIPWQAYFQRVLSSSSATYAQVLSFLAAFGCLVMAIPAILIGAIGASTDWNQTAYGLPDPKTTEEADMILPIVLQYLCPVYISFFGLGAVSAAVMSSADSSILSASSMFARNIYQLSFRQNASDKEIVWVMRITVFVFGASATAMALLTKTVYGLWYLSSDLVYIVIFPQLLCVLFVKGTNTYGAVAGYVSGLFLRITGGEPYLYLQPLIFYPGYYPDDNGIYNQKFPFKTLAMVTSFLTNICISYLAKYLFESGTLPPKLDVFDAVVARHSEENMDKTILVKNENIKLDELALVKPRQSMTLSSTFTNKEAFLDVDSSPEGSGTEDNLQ

[19] = target: Heat shock protein HSP 90-alpha (Homo sapiens, UniProt P07900); assay type: functional, organism-based
INS1 = assay: beta cell apoptosis inhibitors, cytokine rescue, dose response, luminescence, retest (AID 449756); assay type: functional, cell-based; details: Rattus norvegicus;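 also: cell death triggered by IL-1 beta plus TNF-alpha plus IFN-gamma mixture; protective hits raise ATP signal compared with cytokine alone wells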

Chain of Peroxisome proliferator-activated receptor gamma/Nuclear receptor coactivator 1 (P37231 whole entry): as the sequence (P37231 whole entry) above
Chain of Peroxisome proliferator-activated receptor gamma/Nuclear receptor coactivator 1 (Q15788 whole entry, further chain): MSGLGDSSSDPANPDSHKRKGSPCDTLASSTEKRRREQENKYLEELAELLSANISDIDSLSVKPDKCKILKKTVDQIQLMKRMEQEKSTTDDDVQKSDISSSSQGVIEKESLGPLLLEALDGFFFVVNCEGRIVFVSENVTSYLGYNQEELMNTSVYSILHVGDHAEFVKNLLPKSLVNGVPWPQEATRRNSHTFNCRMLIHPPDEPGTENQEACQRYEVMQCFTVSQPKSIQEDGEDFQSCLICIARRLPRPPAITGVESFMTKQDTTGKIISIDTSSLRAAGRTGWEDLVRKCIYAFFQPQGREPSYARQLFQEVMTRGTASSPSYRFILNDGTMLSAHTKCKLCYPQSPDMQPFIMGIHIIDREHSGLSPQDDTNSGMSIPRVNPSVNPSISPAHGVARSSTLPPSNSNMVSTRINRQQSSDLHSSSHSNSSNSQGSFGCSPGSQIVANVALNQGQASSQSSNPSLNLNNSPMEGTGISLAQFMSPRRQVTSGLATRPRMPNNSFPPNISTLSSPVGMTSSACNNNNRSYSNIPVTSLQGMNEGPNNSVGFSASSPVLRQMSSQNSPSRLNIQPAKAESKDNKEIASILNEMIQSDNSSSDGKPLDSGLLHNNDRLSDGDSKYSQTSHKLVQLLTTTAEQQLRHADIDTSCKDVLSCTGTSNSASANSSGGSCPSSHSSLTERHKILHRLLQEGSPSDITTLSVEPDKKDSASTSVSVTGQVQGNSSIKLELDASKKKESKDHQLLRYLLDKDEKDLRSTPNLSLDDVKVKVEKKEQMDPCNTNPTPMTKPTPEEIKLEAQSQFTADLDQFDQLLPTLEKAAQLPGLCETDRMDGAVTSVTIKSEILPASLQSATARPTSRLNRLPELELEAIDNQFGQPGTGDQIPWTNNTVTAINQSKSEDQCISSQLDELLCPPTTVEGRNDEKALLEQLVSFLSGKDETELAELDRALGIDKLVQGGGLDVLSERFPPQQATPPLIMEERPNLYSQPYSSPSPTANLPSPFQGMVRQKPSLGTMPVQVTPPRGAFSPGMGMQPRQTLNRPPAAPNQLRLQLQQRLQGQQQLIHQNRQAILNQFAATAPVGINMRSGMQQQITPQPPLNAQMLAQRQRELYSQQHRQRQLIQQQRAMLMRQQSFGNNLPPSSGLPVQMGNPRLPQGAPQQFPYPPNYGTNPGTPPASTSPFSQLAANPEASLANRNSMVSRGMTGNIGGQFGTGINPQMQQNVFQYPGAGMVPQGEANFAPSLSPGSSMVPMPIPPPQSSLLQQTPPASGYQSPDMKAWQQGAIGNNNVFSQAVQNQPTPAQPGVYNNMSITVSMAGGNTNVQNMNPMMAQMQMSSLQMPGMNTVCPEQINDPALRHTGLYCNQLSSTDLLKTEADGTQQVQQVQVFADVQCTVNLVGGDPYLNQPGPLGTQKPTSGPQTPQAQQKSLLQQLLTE

Cc1ccc(NS(=O)(=O)c2ccc(OCC(=O)NCc3cccnc3)cc2)cc1
EC50 [1]: > 79.4 µM (not active)
EC50 [2]: > 79.4 µM (not active)
EC50 [3]: > 79.4 µM (not active)

COc1ccc(Cl)c(N2CCN(CCCNC(=O)Nc3ccc(C)cc3)CC2)c1
IC50 [4]: 6.56 µM (active)

NC1=NC[C@H](Cc2ccc(O)cc2)N1CCc1cccc2ccccc12
CC50 [5]: > 40 µM (active)
IC50 [6]: > 20 µM (inactive)
IC50 (cells): 9.5 µM (active)

O=c1cc(-c2ccccc2)oc2cc(OCc3ccccc3)cc(O)c12
IC50 [7]: > 50 µM (not active)

O=C(CSc1nnnn1-c1ccc(O)cc1)Nc1cccc(S(=O)(=O)N2CCCC2)c1
AC50 [8]: 50.2 µM (active)

CN1c2ccccc2C(C)(C)C12C=Nc1c(cc(N3CCOCC3)c3ccccc13)O2 (stereo not drawn)
EC50 (Protein RecA): 50.5 µM (inconclusive)
IC50 [9]: > 50 µM (not active)
AC50 (Cytochrome P450 3A4): 4.47 µM (inconclusive)

CCOC(=O)c1c(N)sc(N)c1C(=O)OCC
IC50 [9]: > 50 µM (not active)

O=C(Nc1cccc(-c2ccc(N3CCCCC3)nn2)c1)c1ccc(Br)o1
CC50 [10]: > 40 µM (active)

O=C(NC(=S)NCC1CCCO1)c1ccc(Br)o1 (stereo not drawn)
IC50 [7]: 1.43 µM (not active)

CCOc1ccc(-c2ccc(/C=C3/C(=N)N4C=CSC4=NC3=O)o2)c([N+](=O)[O-])c1
IC50 [4]: 1.48 µM (active)

CCCCNC(=S)N/N=C1\CCCCc2ccccc21
IC50 [7]: 11.2 µM (not active)

Cc1ccc(S(=O)(=O)N(C)C[C@H]2Oc3c(cccc3N(C)C)C(=O)N([C@@H](C)CO)C[C@@H]2C)cc1
AC50 [11]: 0.341 µM (active)
AC50 [12]: > 52 µM (inactive)
AC50 [13]: 0.726 µM (active)

Oc1c(Cl)cc(Cl)cc1C(C#Cc1ccccc1)N1CCOCC1 (stereo not drawn)
IC50 [7]: 12.8 µM (not active)
EC50 [14]: 16.6 µM (active)
EC50 (Streptococcus): 48.9 µM (active)
EC50 (Streptokinase A): 26.8 µM (active)

O=C(CCc1ccc(Oc2cc([N+](=O)[O-])cc([N+](=O)[O-])c2)cc1)N1CCCCCC1
EC50 [15]: > 30 µM (not active)
CC50 [10]: > 40 µM (active)
EC50 [16]: 0.187 µM (active)
AC50 [17]: 4.73 µM (active)

N#C[C@@H]1[C@H](c2ccc(C#CC3CCCCC3)cc2)[C@@H](CO)N1C(=O)c1cccc(F)c1
AC50 [11]: 36.1 µM (active)
AC50 [12]: 35.8 µM (active)

CC1CCCCN1Cc1cnc(Cl)s1 (stereo not drawn)
IC50 [7]: > 50 µM (not active)

COc1ccc(C(=O)N2c3ccccc3CC2C)cc1OC (stereo not drawn)
IC50 [4]: 0.799 µM (not active)

O=C(NNc1nc(-c2ccccc2)cs1)c1ccccc1
IC50 [18]: 14.5 µM (active)
CC50 [10]: > 40 µM (active)

c1ccc(-c2c3c4ccccc4nc-3[nH]c3ccccc23)cc1
CC50 [10]: > 40 µM (active)
AC50 [17]: 2.03 µM (active)

CCCC(=O)NC(c1ccc(OC)c(OC)c1)c1cc(Cl)c2cccnc2c1O (stereo not drawn)
AC50 [8]: 9.06 µM (active)
EC50 [15]: < 6 µM (inconclusive)
EC50 [16]: 1.2 µM (active)
AC50 [19]: 12.4 µM (active)
AC50 (INS1): 1.69 µM (active)

COc1ccc(C(CC(=O)c2ccccc2)S(=O)(=O)c2ccc(C)cc2)cc1 (stereo not drawn)
CC50 [10]: > 40 µM (active)

c1ccc(C2=Nn3c(nnc3-c3ccco3)SC2)cc1
IC50 [9]: > 50 µM (not active)
